Measured values as given in US8357694B2, “Substituted 5,6-dihydro-6-phenylbenzo[F]isoquinolin-2-amine compounds” (ArQule, Inc., priority 2008, dated 2013).
Counter-ions that a name gives are not always drawn.

SMILES	melting point [°C]
OCCc1cc(Nc2ncc3c(n2)-c2ccccc2[C@H](c2ccccc2F)C3)ccc1F [Example 169, (R)-2-(2-fluoro-5-(6-(2-fluorophenyl)-5,6-dihydrobenzo[h]quinazolin-2-ylamino)phenyl)ethano]	140 to 141
CN(C)CCCNc1ncc2c(n1)-c1ccccc1[C@H](c1ccc(Cl)c(Cl)c1)C2 [Example 13, (S)—N^1-(6-(3,4-dichlorophenyl)-5,6-dihydrobenzo[h]quinazolin-2-yl)-N^3,N^3-dimethylpropane-1,3-diamine]	59 to 62
Nc1ncc2c(n1)-c1ccccc1[C@H](c1ccc(Cl)c(Cl)c1)C2	159 to 160
CN(C)CCCCNc1ncc2c(n1)-c1ccccc1C(c1cccc(Br)c1)C2 (centres unmarked) [Example 6, N^1-(6-(3-bromophenyl)-5,6-dihydrobenzo[h]quinazolin-2-yl)-N^4,N^4-dimethylbutane-1,4-diamine]	115 to 117
Clc1ccc([C@@H]2Cc3cnc(Nc4ccc(CCN5CCCCC5)cc4)nc3-c3ccccc32)cc1 (as salt: hydrochloride)	261 to 263
Brc1cccc(C2Cc3cnc(Nc4ccc(CCNCc5ccccc5)cc4)nc3-c3ccccc32)c1 (centres unmarked) [Example 46, N-(4-(2-(benzylamino)ethyl)phenyl)-6-(3-bromophenyl)-5,6-dihydrobenzo[h]quinazolin-2-amine]	98 to 100
Nc1ncc2c(n1)-c1ccccc1[C@H](c1ccccc1F)C2 (as salt: hydrochloride) [Example 24, (R)-6-(2-fluorophenyl)-5,6-dihydrobenzo[h]quinazolin-2-amine]	154 to 155
CN(CCc1ccccc1)CCc1ccc(Nc2ncc3c(n2)-c2ccccc2[C@H](c2ccccc2F)C3)cc1 (as salt: hydrochloride) [Example 93, (R)-6-(2-fluorophenyl)-N-(4-(2-(methyl(phenethyl)amino)ethyl)phenyl)-5,6-dihydrobenzo[h]quinazolin-2-amine hydrochloride salt]	135 to 145
COCCNCc1cccc(Nc2ncc3c(n2)-c2ccccc2[C@H](c2ccccc2F)C3)c1 (as salt: HCl) [Example 158, (R)-6-(2-fluorophenyl)-N-(3-((2-methoxyethylamino)methyl)phenyl)-5,6-dihydrobenzo[h]quinazolin-2-amine]	139 to 147
Brc1ccc([C@H]2Cc3cnc(Nc4ccc(CCN5CCCCC5)cc4)nc3-c3ccccc32)cc1 (as salt: hydrochloride) [Example 108, (R)-6-(4-bromophenyl)-N-(4-(2-(piperidin-1-yl)ethyl)phenyl)-5,6-dihydrobenzo[h]quinazolin-2-amine hydrochloride salt]	170 to 175
CN1CCN(CCc2ccc(Nc3ncc4c(n3)-c3ccccc3[C@H](c3ccc(Cl)c(Cl)c3)C4)cc2)CC1 (as salt: hydrochloride) [Example 114, (S)-6-(3,4-dichlorophenyl)-N-(4-(2-(4-methylpiperazin-1-yl)ethyl)phenyl)-5,6-dihydrobenzo[h]quinazolin-2-amine hydrochloride]	236 to 238
CN1CCN(CCc2ccc(Nc3ncc4c(n3)-c3ccccc3[C@H](c3ccc(F)c(F)c3)C4)cc2)CC1 (as salt: hydrochloride) [Example 88, (S)-6-(3,4-difluorophenyl)-N-(4-(2-(4-methylpiperazin-1-yl)ethyl)phenyl)-5,6-dihydrobenzo[h]quinazolin-2-amine hydrochloride]	90 to 92
CN(CCc1ccccc1)CCc1ccc(Nc2ncc3c(n2)-c2ccccc2[C@H](c2cccc(Br)c2)C3)cc1 (as salt: HCl) [Example 81, (S)-6-(3-bromophenyl)-N-(4-(2-(methyl(phenethyl)amino)ethyl)phenyl)-5,6-dihydrobenzo[h]quinazolin-2-amine]	146 to 153
COCCN1CCN(CCc2ccc(Nc3ncc4c(n3)-c3ccccc3C(c3ccc(Cl)cc3)C4)cc2)CC1 (centres unmarked) (as salt: hydrochloride) [Example 56, 6-(4-chlorophenyl)-N-(4-(2-(4-(2-methoxyethyl)piperazin-1-yl)ethyl)phenyl)-5,6-dihydrobenzo[h]quinazolin-2-amine hydrochloride]	204 to 214
CCCCN(C)CCc1ccc(Nc2ncc3c(n2)-c2ccccc2[C@H](c2cccc(Br)c2)C3)cc1 (as salt: hydrochloride) [Example 80, (S)-6-(3-bromophenyl)-N-(4-(2-(butyl(methyl)amino)ethyl)phenyl)-5,6-dihydrobenzo[h]quinazolin-2-amine hydrochloride]	146 to 153
CN(CCc1ccc(Nc2ncc3c(n2)-c2ccccc2C(c2ccc(F)c(F)c2)C3)cc1)C1CCCCC1 (centres unmarked) (as salt: hydrochloride) [Example 60, N-(4-(2-(cyclohexyl(methyl)amino)ethyl)phenyl)-6-(3,4-difluorophenyl)-5,6-dihydrobenzo[h]quinazolin-2-amine]	107 to 114
CN(CCc1ccc(Nc2ncc3c(n2)-c2ccccc2C(c2cccc(Br)c2)C3)cc1)CCc1ccccn1 (centres unmarked) [Example 36, 6-(3-bromophenyl)-N-(4-(2-(methyl(2-(pyridin-2-yl)ethyl)amino)ethyl)phenyl)-5,6-dihydrobenzo[h]quinazolin-2-amine]	75 to 77
Nc1ncc2c(n1)-c1ccc(-c3ccccc3)cc1C(c1ccc(Cl)c(Cl)c1)C2 (centres unmarked) [Example 21, 6-(3,4-dichlorophenyl)-8-phenyl-5,6-dihydrobenzo[h]quinazolin-2-amine]	186 to 187
OCCc1ccc(Nc2ncc3c(n2)-c2ccccc2[C@@H](c2ccc(Cl)c(Cl)c2)C3)cc1	113 to 115
Brc1cccc(C2Cc3cnc(Nc4ccc(CCNc5ccccc5)cc4)nc3-c3ccccc32)c1 (centres unmarked) [Example 35, 6-(3-bromophenyl)-N-(4-(2-(phenylamino)ethyl)phenyl)-5,6-dihydrobenzo[h]quinazolin-2-amine]	92 to 94
COCCN1CCN(CCc2ccc(Nc3ncc4c(n3)-c3ccccc3C(c3cccc(Br)c3)C4)cc2)CC1 (centres unmarked) [Example 32, 6-(3-bromophenyl)-N-(4-(2-(4-(2-methoxyethyl)piperazin-1-yl)ethyl)phenyl)-5,6-dihydrobenzo[h]quinazolin-2-amine]	105 to 107
Clc1ccc(C2Cc3cnc(Nc4ccc(CCN5CCCCC5)cc4)nc3-c3ccccc32)cc1Cl (centres unmarked)	181 to 183
CCCCN(C)CCc1ccc(Nc2ncc3c(n2)-c2ccccc2[C@H](c2ccc(F)cc2)C3)cc1 [Example 99, (S)—N-(4-(2-(butyl(methyl)amino)ethyl)phenyl)-6-(4-fluorophenyl)-5,6-dihydrobenzo[h]quinazolin-2-amine]	164 to 166

Other lines, results leading:

melting point [°C]	SMILES
170 to 172	OCCc1ccc(Nc2ncc3c(n2)-c2ccccc2C(c2ccc(F)c(F)c2)C3)cc1 (centres unmarked) [Example 23, 2-(4-(6-(3,4-difluorophenyl)-5,6-dihydrobenzo[h]quinazolin-2-ylamino)phenyl)ethanol]
58 to 60	COCCN(CCOC)CCc1ccc(Nc2ncc3c(n2)-c2ccccc2C(c2cccc(Br)c2)C3)cc1 (centres unmarked) [Example 42, N-(4-(2-(bis(2-methoxyethyl)amino)ethyl)phenyl)-6-(3-bromophenyl)-5,6-dihydrobenzo[h]quinazolin-2-amine]
115 to 117	NCCc1ccc(Nc2ncc3c(n2)-c2ccccc2C(c2cccc(Br)c2)C3)cc1 (centres unmarked) [Example 34, N-(4-(2-aminoethyl)phenyl)-6-(3-bromophenyl)-5,6-dihydrobenzo[h]quinazolin-2-amine]
67 to 69	CCN(CCc1ccc(Nc2ncc3c(n2)-c2ccccc2C(c2cccc(Br)c2)C3)cc1)C(C)C (centres unmarked) [Example 40, 6-(3-bromophenyl)-N-(4-(2-(ethyl(isopropyl)amino)ethyl)phenyl)-5,6-dihydrobenzo[h]quinazolin-2-amine]
225 to 229	CN1CCN(CCc2cc(Nc3ncc4c(n3)-c3ccccc3[C@H](c3ccccc3F)C4)ccc2F)CC1 (as salt: hydrochloride) [Example 174, (R)—N-(4-fluoro-3-(2-(4-methylpiperazin-1-yl)ethyl)phenyl)-6-(2-fluorophenyl)-5,6-dihydrobenzo[h]quinazolin-2-amine hydrochloride salt]
163 to 164	OCCc1ccc(Nc2ncc3c(n2)-c2ccccc2C(c2ccc(Cl)cc2)C3)cc1 (centres unmarked) [Example 22, 2-(4-(6-(4-chlorophenyl)-5,6-dihydrobenzo[h]quinazolin-2-ylamino)phenyl)ethanol]
157 to 158	CN1CCN(CCc2ccc(Nc3ncc4c(n3)-c3ccccc3C(c3ccccc3C(F)(F)F)C4)cc2)CC1 (centres unmarked) [Example 71, N-(4-(2-(4-methylpiperazin-1-yl)ethyl)phenyl)-6-(2-(trifluoromethyl)phenyl)-5,6 dihydrobenzo[h]quinazolin-2-amine]
212 to 216	COCCN1CCN(CCc2ccc(Nc3ncc4c(n3)-c3ccccc3[C@H](c3ccccc3F)C4)cc2)CC1 (as salt: hydrochloride) [Example 66, (R)-6-(2-fluorophenyl)-N-(4-(2-(4-(2-methoxyethyl)piperazin-1-yl)ethyl)phenyl)-5,6-dihydrobenzo[h]quinazolin-2-amine hydrochloride]
110 to 114	CN(C)CCCNc1ncc2c(n1)-c1ccccc1C(c1ccc(Cl)c(Cl)c1)C2 (centres unmarked) [Example 11, N^1-(6-(3,4-dichlorophenyl)-5,6-dihydrobenzo[h]quinazolin-2-yl)-N^3,N^3-dimethylpropane-1,3-diamine]
99 to 100	CS(=O)(=O)OCCc1cc(Nc2ncc3c(n2)-c2ccccc2[C@H](c2ccccc2F)C3)ccc1F [Example 170, (R)-2-fluoro-5-(6-(2-fluorophenyl)-5,6-dihydrobenzo[h]quinazolin-2-ylamino)phenethyl methanesulfonate]
198 to 201	COCCNCCc1ccc(Nc2ncc3c(n2)-c2ccccc2[C@H](c2ccccc2F)C3)cc1 (as salt: hydrochloride) [Example 94, (R)-6-(2-fluorophenyl)-N-(4-(2-(2-methoxyethylamino)ethyl)phenyl)-5,6-dihydrobenzo[h]quinazolin-2-amine hydrochloride salt]
163 to 167	CCCCN(C)CCc1cccc(Nc2ncc3c(n2)-c2ccccc2[C@H](c2ccccc2F)C3)c1 (as salt: hydrochloride)
